Laboratory results: US10610104B2, “Gastrointestinal tract detection methods, devices and systems” (priority 2016, dated 2020)

Columns and labels:
C. albicans = experiment: OD600 assay under simulated GI conditions, fungal contamination with or without anti-fungal recovery media; assay type: cell-based; conditions: TSB containing 2.5 mg/L Amphotericin B; C. albicans 1×10^3 CFU/mL; FaSSIF-V2; 4 hour incubation
Protocol: Experiments were performed in order to simulate an ingestible device that contains sterile media that is inoculated with a sample of fluid from the GI tract and incubated in transit. The experiments were designed to evaluate whether the assay could predict total bacterial counts over a dynamic range of 10^3 CFU/mL to 10^7 CFU/mL under a series of different conditions of pH, […], fungal strains, mucin concentrations. The samples were also incubated under conditions of shear forces and temperature that simulate conditions of an ingestible device in transit within the GI tract.
Gram-negative (Escherichia coli ATCC 25922) and Gram-positive (Staphylococcus epidermidis ATCC 12228) bacterial cultures were diluted in a standard growth media (TSB) over a dynamic range of 10^7 CFU/mL to 10^3 CFU/mL. The assay utilized […], under shear (110 rpm) and at body temperature (37° C.) over a 4 hour incubation period to simulate transit of an ingestible device within the GI tract. Experiments were performed under various conditions as indicated including: different pH levels (6.5, 7.0 and 7.8); […]; […] […] Experiments were conducted in quintuplicate. All testing was completed in simulated jejunal fluid (FaSSIF-V2; available from BioRelevant (London, UK) Cat: V2FA501 Lot: 02-1408-07, pH 6.5) using a 50 μL sample volume and a 4 hour incubation period. […]

cyclophilin = cyclophilin (Homo sapiens, UniProt P62937); conditions: voclosporin versus cyclosporine A; cited from earlier work
[1] = system: inflammatory bowel disease (IBD); conditions: numerous murine models; cited from earlier work
human IL-6 = human IL-6 (Homo sapiens, UniProt P05231); conditions: cited from earlier work
[2] = binding to lipid A, the common moiety of LPS; cited from earlier work

human IL-6, sequence (P05231 30-212): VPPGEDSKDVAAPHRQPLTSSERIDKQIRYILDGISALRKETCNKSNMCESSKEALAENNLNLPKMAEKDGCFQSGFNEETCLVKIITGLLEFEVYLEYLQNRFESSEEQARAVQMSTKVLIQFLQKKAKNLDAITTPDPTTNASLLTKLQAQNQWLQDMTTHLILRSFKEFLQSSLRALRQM
cyclophilin, sequence (P62937 whole entry): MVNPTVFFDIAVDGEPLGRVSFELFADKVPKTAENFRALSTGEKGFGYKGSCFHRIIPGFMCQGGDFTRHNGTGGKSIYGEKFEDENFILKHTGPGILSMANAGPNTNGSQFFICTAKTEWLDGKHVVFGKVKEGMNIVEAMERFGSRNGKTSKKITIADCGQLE

Molecule: C[C@@H]1[C@H](O)[C@@H](C)/C=C/C=C/C=C/C=C/C=C/C=C/C=C/[C@H](O[C@@H]2O[C@H](C)[C@@H](O)[C@H](N)[C@@H]2O)C[C@@H]2O[C@](O)(C[C@@H](O)C[C@@H](O)[C@H](O)CC[C@@H](O)C[C@@H](O)CC(=O)O[C@H]1C)C[C@H](O)[C@H]2C(=O)O [amphotericin B, Amphotericin B]
- background fungal growth (plate counts and optical density) (C. albicans): reduced the background fungal growth

Molecule: C=C/C=C/C[C@@H](C)[C@@H](O)[C@H]1C(=O)N[C@@H](CC)C(=O)N(C)CC(=O)N(C)[C@@H](CC(C)C)C(=O)N[C@@H](C(C)C)C(=O)N(C)[C@@H](CC(C)C)C(=O)N[C@@H](C)C(=O)N[C@H](C)C(=O)N(C)[C@@H](CC(C)C)C(=O)N(C)[C@@H](CC(C)C)C(=O)N(C)[C@@H](C(C)C)C(=O)N1C [voclosporin]
- binding affinity for cyclophilin (cyclophilin): comparable

Molecule: L-glutamic acid polymer with L-alanine, L-lysine and L-tyrosine, acetate (salt) [Glatiramer acetate]
- effect on inflammation and pathological manifestations of IBD [1]: reduce inflammation and ameliorate the pathological manifestations

Molecule: siltuximab: a chimeric, human-murine, immunoglobulin (Ig) Gκ mAb that binds and neutralizes human IL-6
- binds and neutralizes human IL-6 (human IL-6): high affinity and specificity

B1: Lipopolysaccharide Binding Protein (LBP): Lipopolysaccharide Binding Protein, binds with high affinity to lipid A, the common moiety of LPS (protein, UniProt P18428 26-481, looked up)
Lipopolysaccharide-binding …: ANPGLVARITDKGLQYAAQEGLLALQSELLRITLPDFTGDLRIPHVGRGRYEFHSLNIHSCELLHSALRPVPGQGLSLSISDSSIRVQGRWKVRKSFFKLQGSFDVSVKGISISVNLLLGSESSGRPTVTASSCSSDIADVEVDMSGDLGWLLNLFHNQIESKFQKVLESRICEMIQKSVSSDLQPYLQTLPVTTEIDSFADIDYSLVEAPRATAQMLEVMFKGEIFHRNHRSPVTLLAAVMSLPEEHNKMVYFAISDYVFNTASLVYHEEGYLNFSITDDMIPPDSNIRLTTKSFRPFVPRLARLYPNMNLELQGSVPSAPLLNFSPGNLSVDPYMEIDAFVLLPSSSKEPVFRLSVATNVSATLTFNTSKITGFLKPGKVKVELKESKVGLFNAELLEALLNYYILNTFYPKFNDKLAEGFPLPLLKRVQLYDLGLQIHKDFLFLGANVQYMRV
- Kd [2]: 1 nM
